Experiments:
Assay type in all cases: cell-based
E. coli DH5α = test: Antibacterial activity: MIC and growth curve against E. coli DH5α in 96-well plate; details: minimal inhibitory concentration against E. coli DH5α; 96-well plate, 5×10^5 CFU/mL, 37° C., judged after 8 h
Summary of the method: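 MIC taken as lowest protein level with no bacterial growth, tracked by A600 every 30 min during 37 °C, 175 rpm culture. Two-fold protein series 50-12.5 μg/mL final, triplicate wells, against 5×10^5 CFU/mL of LB-washed mid-log cells.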

E. coli BL21 = test: MIC against Gram-negative bacteria: E. coli BL21; details: for MIC (μg/mL) E. coli BL21 / MIC E. coli BL21 / MIC against E. coli BL21: 5×10^5 CFU/mL
Summary of the method: (§1)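 Inocula prepared by growing LB cultures at 37° C to 0.5 McFarland, centrifuging at 4000×g, and resuspending in fresh medium. Final density 5×10^5 CFU/mL per well with two-fold dilutions of purified EGF domain protein; shaking incubation at 37° C.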

Pseudomonas aeruginosa = test: MIC against Gram-negative bacteria: Pseudomonas aeruginosa; details: for MIC (μg/mL) P. aeruginosa / MIC P. aeruginosa / MIC against P. aeruginosa: 5×10^5 CFU/mL
Summary of the method: as §1

Klebsiella pneumonia = test: MIC against Gram-negative bacteria: Klebsiella pneumonia; details: for MIC (μg/mL) K. pneumonia / MIC K. pneumonia / MIC against K. pneumonia: 5×10^5 CFU/mL
Summary of the method: as §1

Enterobacter cloacae = test: MIC against Gram-negative bacteria: Enterobacter cloacae; details: for MIC (μg/mL) E. cloacae / MIC E. cloacae / MIC against E. cloacae: 5×10^5 CFU/mL
Summary of the method: as §1

Aeromonas hydrophila = test: MIC against Gram-negative bacteria: Aeromonas hydrophila; details: for MIC (μg/mL) A. hydrophila / MIC A. hydrophila / MIC against A. hydrophila: 5×10^5 CFU/mL
Summary of the method: as §1

Citrobacter diversus = test: MIC against Gram-negative bacteria: Citrobacter diversus; details: for MIC (μg/mL) C. diversus / MIC C. diversus / MIC against C. diversus: 5×10^5 CFU/mL
Summary of the method: as §1

Moraxella catarrhalis = test: MIC against Gram-negative bacteria: Moraxella catarrhalis; details: for MIC (μg/mL) M. catarrhalis / MIC M. catarrhalis / MIC against M. catarrhalis: 5×10^5 CFU/mL
Summary of the method: as §1

Proteus mirabilis = test: MIC against Gram-negative bacteria: Proteus mirabilis; details: for MIC (μg/mL) P. mirabilis / MIC P. mirabilis / MIC against P. mirabilis: 5×10^5 CFU/mL
Summary of the method: as §1

Proteus vulgaris = test: MIC against Gram-negative bacteria: Proteus vulgaris; details: for MIC (μg/mL) P. vulgaris / MIC P. vulgaris / MIC against P. vulgaris: 5×10^5 CFU/mL
Summary of the method: as §1

Serratia marcescens = test: MIC against Gram-negative bacteria: Serratia marcescens; details: for MIC (μg/mL) S. marcescens / MIC S. marcescens / MIC against S. marcescens: 5×10^5 CFU/mL
Summary of the method: as §1

[1] = E. coli BL21, 96-well plate, 37° C., 10 h
[2] = Pseudomonas aeruginosa, 96-well plate, 37° C., 10 h
[3] = Klebsiella pneumonia, 96-well plate, 37° C., 10 h
[4] = Enterobacter cloacae, 96-well plate, 37° C., 10 h
[5] = Aeromonas hydrophila, 96-well plate, 37° C., 10 h
[6] = Citrobacter diversus, 96-well plate, 37° C., 10 h
[7] = Moraxella catarrhalis, 96-well plate, 37° C., 10 h
[8] = Proteus mirabilis, 96-well plate, 37° C., 10 h
[9] = Proteus vulgaris, 96-well plate, 37° C., 10 h
[10] = Serratia marcescens, 96-well plate, 37° C., 10 h
[11] = E. coli BL21, 10 h cultivation at 37° C.
[12] = P. aeruginosa, 10 h cultivation at 37° C.
[13] = K. pneumonia, 10 h cultivation at 37° C.
[14] = E. cloacae, 10 h cultivation at 37° C.
[15] = A. hydrophila, 10 h cultivation at 37° C.
[16] = C. diversus, 10 h cultivation at 37° C.
[17] = M. catarrhalis, 10 h cultivation at 37° C.
[18] = P. mirabilis, 10 h cultivation at 37° C.
[19] = P. vulgaris, 10 h cultivation at 37° C.
[20] = S. marcescens, 10 h cultivation at 37° C.
[21] = Pseudomonas aeruginosa, 10 h cultivation at 37° C.
[22] = Klebsiella pneumonia, 10 h cultivation at 37° C.
[23] = Enterobacter cloacae, 10 h cultivation at 37° C.
[24] = Aeromonas hydrophila, 10 h cultivation at 37° C.
[25] = Citrobacter diversus, 10 h cultivation at 37° C.
[26] = Moraxella catarrhalis, 10 h cultivation at 37° C.
[27] = Proteus mirabilis, 10 h cultivation at 37° C.
[28] = Proteus vulgaris, 10 h cultivation at 37° C.
[29] = Serratia marcescens, 10 h cultivation at 37° C.

PRT130 (ITDRCLPSYCEHGGECSQSWDTFSCDCLGTGYTGETCH; listed as Homo sapiens)
25 µg/mL: MIC (μg/mL) E. coli BL21 (E. coli BL21; [1]) | MIC (μg/mL) K. pneumonia (Klebsiella pneumonia; [3]) | MIC (μg/mL) A. hydrophila (Aeromonas hydrophila; [5]) | MIC (μg/mL) M. catarrhalis (Moraxella catarrhalis; [7])
50 µg/mL: MIC (μg/mL) C. diversus (Citrobacter diversus; [6]) | MIC (μg/mL) P. vulgaris (Proteus vulgaris; [9])
12.5 µg/mL: MIC (E. coli DH5α) | MIC (μg/mL) P. aeruginosa (Pseudomonas aeruginosa; [2]) | MIC (μg/mL) E. cloacae (Enterobacter cloacae; [4]) | MIC (μg/mL) P. mirabilis (Proteus mirabilis; [8]) | MIC (μg/mL) S. marcescens (Serratia marcescens; [10])

PRT836 (FGHDCSLTCDDCRNGGTCLLGLDGCDCPEGWTGLICN; listed as Homo sapiens)
50 µg/mL: MIC (E. coli DH5α) | MIC (μg/mL) P. aeruginosa (Pseudomonas aeruginosa; [12]) | MIC (μg/mL) E. cloacae (Enterobacter cloacae; [14])
25 µg/mL: MIC (μg/mL) C. diversus (Citrobacter diversus; [16]) | MIC (μg/mL) P. mirabilis (Proteus mirabilis; [18]) | MIC (μg/mL) P. vulgaris (Proteus vulgaris; [19])
12.5 µg/mL: MIC (μg/mL) E. coli BL21 (E. coli BL21; [11]) | MIC (μg/mL) K. pneumonia (Klebsiella pneumonia; [13]) | MIC (μg/mL) A. hydrophila (Aeromonas hydrophila; [15]) | MIC (μg/mL) M. catarrhalis (Moraxella catarrhalis; [17]) | MIC (μg/mL) S. marcescens (Serratia marcescens; [20])

PRT631 (CSCHPQGSVSEQMPCDPVTGQCSCLPHVTARDCSRCYPGFFDLQPGRGCRS; listed as Homo sapiens)
25 µg/mL: MIC (E. coli DH5α) | MIC P. aeruginosa (Pseudomonas aeruginosa; 96-well plate, 37° C., 10 h) | MIC E. cloacae (Enterobacter cloacae; 96-well plate, 37° C., 10 h) | MIC C. diversus (Citrobacter diversus; 96-well plate, 37° C., 10 h) | MIC P. mirabilis (Proteus mirabilis; 96-well plate, 37° C., 10 h) | MIC S. marcescens (Serratia marcescens; 96-well plate, 37° C., 10 h)
12.5 µg/mL: MIC E. coli BL21 (E. coli BL21; 96-well plate, 37° C., 10 h) | MIC K. pneumonia (Klebsiella pneumonia; 96-well plate, 37° C., 10 h) | MIC A. hydrophila (Aeromonas hydrophila; 96-well plate, 37° C., 10 h) | MIC M. catarrhalis (Moraxella catarrhalis; 96-well plate, 37° C., 10 h) | MIC P. vulgaris (Proteus vulgaris; 96-well plate, 37° C., 10 h)

PRT760 (KLDSCALGDHGCEHSCVSSEDSFVCQCFEGYILREDGKTCR; listed as Homo sapiens)
50 µg/mL: MIC (E. coli DH5α) | MIC (μg/mL) K. pneumonia (Klebsiella pneumonia; [13]) | MIC (μg/mL) A. hydrophila (Aeromonas hydrophila; [15]) | MIC (μg/mL) M. catarrhalis (Moraxella catarrhalis; [17]) | MIC (μg/mL) P. vulgaris (Proteus vulgaris; [19])
25 µg/mL: MIC (μg/mL) E. coli BL21 (E. coli BL21; [11])
12.5 µg/mL: MIC (μg/mL) P. aeruginosa (Pseudomonas aeruginosa; [12]) | MIC (μg/mL) E. cloacae (Enterobacter cloacae; [14]) | MIC (μg/mL) C. diversus (Citrobacter diversus; [16]) | MIC (μg/mL) P. mirabilis (Proteus mirabilis; [18]) | MIC (μg/mL) S. marcescens (Serratia marcescens; [20])

PRT1398 (EVDCLDPTCSSHGVCVNGECLCSPGWGGLNCEL; listed as Homo sapiens)
12.5 µg/mL: MIC against P. aeruginosa (Pseudomonas aeruginosa; [21]) | MIC against C. diversus (Citrobacter diversus; [25]) | MIC against P. mirabilis (Proteus mirabilis; [27]) | MIC against S. marcescens (Serratia marcescens; [29])
50 µg/mL: MIC against E. cloacae (Enterobacter cloacae; [23])
25 µg/mL: MIC (E. coli DH5α) | MIC against E. coli BL21 (E. coli BL21; [11]) | MIC against K. pneumonia (Klebsiella pneumonia; [22]) | MIC against A. hydrophila (Aeromonas hydrophila; [24]) | MIC against M. catarrhalis (Moraxella catarrhalis; [26]) | MIC against P. vulgaris (Proteus vulgaris; [28])

PRT535 (CQCDIGGALSSMCSGPSGVCQCREHVVGKVCQRPENNYYFPDLHH; listed as Homo sapiens)
25 µg/mL: MIC against E. coli BL21 (E. coli BL21; 96-well plate, 37° C., 10 h)
50 µg/mL: MIC against P. aeruginosa (Pseudomonas aeruginosa; 96-well plate, 37° C., 10 h) | MIC against E. cloacae (Enterobacter cloacae; 96-well plate, 37° C., 10 h) | MIC against C. diversus (Citrobacter diversus; 96-well plate, 37° C., 10 h) | MIC against P. mirabilis (Proteus mirabilis; 96-well plate, 37° C., 10 h) | MIC against S. marcescens (Serratia marcescens; 96-well plate, 37° C., 10 h)
12.5 µg/mL: MIC (E. coli DH5α) | MIC against K. pneumonia (Klebsiella pneumonia; 96-well plate, 37° C., 10 h) | MIC against A. hydrophila (Aeromonas hydrophila; 96-well plate, 37° C., 10 h) | MIC against M. catarrhalis (Moraxella catarrhalis; 96-well plate, 37° C., 10 h) | MIC against P. vulgaris (Proteus vulgaris; 96-well plate, 37° C., 10 h)

PRT39 (PVRDCSRNNGGCTRNFKCVSDRQVDSSGCVCPEELKPMKDGSGCY; listed as Homo sapiens)
12.5 µg/mL: MIC (μg/mL) M. catarrhalis (Moraxella catarrhalis; [7]) | MIC (μg/mL) P. vulgaris (Proteus vulgaris; [9]) | MIC (μg/mL) S. marcescens (Serratia marcescens; [10])
25 µg/mL: MIC (μg/mL) E. coli BL21 (E. coli BL21; [1]) | MIC (μg/mL) E. cloacae (Enterobacter cloacae; [4]) | MIC (μg/mL) P. mirabilis (Proteus mirabilis; [8])
50 µg/mL: MIC (E. coli DH5α) | MIC (μg/mL) P. aeruginosa (Pseudomonas aeruginosa; [2]) | MIC (μg/mL) K. pneumonia (Klebsiella pneumonia; [3]) | MIC (μg/mL) A. hydrophila (Aeromonas hydrophila; [5]) | MIC (μg/mL) C. diversus (Citrobacter diversus; [6])

PRT1385 (GVRSCPGDCNQRGRCEDGRCVCWPGYTGTDC; listed as Homo sapiens)
50 µg/mL: MIC against E. coli BL21 (E. coli BL21; [11]) | MIC against K. pneumonia (Klebsiella pneumonia; [22]) | MIC against A. hydrophila (Aeromonas hydrophila; [24]) | MIC against M. catarrhalis (Moraxella catarrhalis; [26]) | MIC against S. marcescens (Serratia marcescens; [29])
25 µg/mL: MIC against P. vulgaris (Proteus vulgaris; [28])
12.5 µg/mL: MIC (E. coli DH5α) | MIC against P. aeruginosa (Pseudomonas aeruginosa; [21]) | MIC against E. cloacae (Enterobacter cloacae; [23]) | MIC against C. diversus (Citrobacter diversus; [25]) | MIC against P. mirabilis (Proteus mirabilis; [27])

PRT924 (DVDECAMANSNPCEHAGKCVNTDGAFHCECLKGYAGPRCE; listed as Homo sapiens)
12.5 µg/mL: MIC (E. coli DH5α) | MIC (Klebsiella pneumonia; [13]) | MIC (Citrobacter diversus; [16]) | MIC (Proteus vulgaris; [19])
25 µg/mL: MIC (E. coli BL21; [11]) | MIC (Enterobacter cloacae; [14]) | MIC (Proteus mirabilis; [18])
50 µg/mL: MIC (Pseudomonas aeruginosa; [12]) | MIC (Aeromonas hydrophila; [15]) | MIC (Moraxella catarrhalis; [17]) | MIC (Serratia marcescens; [20])

PRT668 (DINECRHPGTCPDGRCVNSPGSYTCLACEEGYRGQSGSCV; listed as Homo sapiens)
100 µg/mL: MIC C. diversus (Citrobacter diversus; 96-well plate, 37° C., 10 h) | MIC S. marcescens (Serratia marcescens; 96-well plate, 37° C., 10 h)
25 µg/mL: MIC M. catarrhalis (Moraxella catarrhalis; 96-well plate, 37° C., 10 h) | MIC P. mirabilis (Proteus mirabilis; 96-well plate, 37° C., 10 h)
50 µg/mL: MIC E. coli BL21 (E. coli BL21; 96-well plate, 37° C., 10 h) | MIC K. pneumonia (Klebsiella pneumonia; 96-well plate, 37° C., 10 h) | MIC A. hydrophila (Aeromonas hydrophila; 96-well plate, 37° C., 10 h) | MIC P. vulgaris (Proteus vulgaris; 96-well plate, 37° C., 10 h)
12.5 µg/mL: MIC (E. coli DH5α) | MIC P. aeruginosa (Pseudomonas aeruginosa; 96-well plate, 37° C., 10 h) | MIC E. cloacae (Enterobacter cloacae; 96-well plate, 37° C., 10 h)

— patent US9833497B2, “Human originated EGF domain proteins and use of the same” (CHENGDU SOURCEBIO LIMITED-LIABILITY COMPANY, priority 2013, dated 2017)
